Results: US20220304992A1, “METHODS OF REJUVENATING AGED TISSUE BY INHIBITING 15-HYDROXYPROSTAGLANDIN DEHYDROGENASE (15-PGDH)” (The Board of Trustees of the Leland Stanford Junior …, priority 2019, published 2022)
“Also recorded” adds a separate entry of the source.

Assays:
[1] = test system: 15-PGDH overexpressing young muscles; type: in vivo, mouse
Experimental: Middle aged (18-20 mo.) and aged (>24 mo.) mice C57BL/6 were obtained the US National Institute on Aging (NIA) for aged muscle studies, and young (2-4 mo.) wild-type C57BL/6 mice from Jackson Laboratory. […] Time and distance to exhaustion was performed as previously described (4) for SW-treated mice and their controls.
Overexpression of Hpgd (15-PGDH) was achieved by integrating AAV9 under CMV promoter and with eGFP under IRES (AA9-CMV-m-HPGD-IRES-eGFP) (Vector Biolabs). The control virus was AAV9-tMCK-eGFP-WPRE.
The peak isometric torque (N·mm) of the ankle plantarflexors was assessed as previously described (21, 22). Briefly, the foot of anesthetized mice was placed on a footplate attached to a servomotor (model 300C-LR; Aurora Scientific). Two Pt-Ir electrode needles (Aurora Scientific) were inserted percutaneously and subcutaneously over the tibial nerve, just posterior/posterior-medial to the knee. The ankle joint was secured at a 90° angle. The peak isometric torque was achieved by varying the current delivered to the tibial nerve at a frequency of 200 Hz and a 0.1—ms square wave pulse. We performed three tetanic measurements on each muscle, with 1 min recovery between each measurement. Data were collected with the Aurora Scientific Dynamic Muscle Data Acquisition and Analysis Software.

[2] = test system: PGE2 and PGD2 levels in muscle tissue; assay: LC-MS/MS of prostaglandins in muscle tissue lysates; type: in vivo, mouse; conditions: aged mice, daily i.p., 1 month
Experimental: All prostaglandin standards-PGF2a; PGE2; PGD2; 15-keto PGE2; 13,14-dihydro 15-keto PGE2; PGE2-D4; and PGF2α-D9—were purchased from Cayman Chemical. For the PGE2-D4 internal standard, positions 3 and 4 were labeled with a total of four deuterium atoms. For PGF2α-D9, positions 17, 18, 19 and 20 were labeled with a total of nine deuterium atoms.
Analyte stock solutions (5 mg/mL) were prepared in DMSO. These stock solutions were serially diluted with acetonitrile/water (1:1 v/v) to obtain a series of standard working solutions, which were used to generate the calibration curve. […]
Solid tissues were harvested, weighed, and snap-frozen with liquid nitrogen. […] The dry residue was reconstituted in 100 μL acetonitrile/10 mM ammonium acetate (2:8 v/v) and analyzed by LC-MS/MS.
Since many prostaglandins are positional isomers with identical masses and have similar fragmentation patterns, chromatographic separation is critical. Two SRM transitions-one quantifier and one qualifier-were carefully selected for each analyte. […]
Quantitative analysis was done using LabSolutions LCMS (Shimadzu). An internal standard method was used for quantification: PGE2-D4 was used as an internal standard for quantification of PGE2, 15-keto PGE2, and 13, 14-dihydro 15-keto PGE2. […]

[3] = 15-PGDH overexpressing young muscles, daily i.p.

CCCC[S+]([O-])c1sc2nc(-c3cccs3)cc(-c3ccccc3)c2c1N (centres unmarked) [SW033291, 2-(butylsulfinyl)-4-phenyl-6-(thiophen-2-yl)thieno[2,3-b]pyridin-3-amine]
mass of TA muscle [1, 3]: increased
strength (plantar flexion tetanic force) [1, 3]: increased
muscle atrophy induced by overexpression of 15-PGDH ([1]; young mice): rescued
PGD2 levels in muscle [2]: increase
PGE2 levels in muscle ([2]; listed as SW): elevated; also recorded: increase
